Laboratory results taken from PubChem BioAssay AID1845198 (Molecular Pharmacology Branch, DTP, NCI, 2023).

Test system: 425362-245-T-J1 tumor spheroids, viability % test/control
Experiment: Anticancer human tumor 425362-245-T-J1 patient-derived melanoma cell line growth inhibition
Conditions: spheroids with HUVEC and MSC; for IC50: curve of first compound; for viability, T/C: stronger effect = lower value; active means viability on the fitted dose curve at most 10% of control; inactive means the rest
Procedure, shortened: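 Complex spheroids of malignant cells with endothelial cells and mesenchymal stem cells; agents alone or combined, from near clinical Cmax (or 10 microM if unknown) down in half-log steps, 0.25% DMSO final.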

[1] = second compound 1 µM, first compound 0.0316 µM
[2] = second compound 1 µM, first compound 0.1 µM
[3] = second compound 1 µM, first compound 0.316 µM
[4] = second compound 1 µM, first compound 1 µM
[5] = second compound 1 µM, first compound 3.16 µM
[6] = second compound 1 µM, first compound 10 µM
[7] = second compound 3.16 µM, first compound 0.0316 µM
[8] = second compound 3.16 µM, first compound 0.1 µM
[9] = second compound 3.16 µM, first compound 0.316 µM
[10] = second compound 3.16 µM, first compound 1 µM
[11] = second compound 3.16 µM, first compound 3.16 µM
[12] = second compound 3.16 µM, first compound 10 µM
[13] = second compound 10 µM, first compound 0.0316 µM
[14] = second compound 10 µM, first compound 0.1 µM
[15] = second compound 10 µM, first compound 0.316 µM
[16] = second compound 10 µM, first compound 1 µM
[17] = second compound 10 µM, first compound 3.16 µM
[18] = second compound 10 µM, first compound 10 µM
[19] = second compound 31.6 µM, first compound 0.0316 µM
[20] = second compound 31.6 µM, first compound 0.1 µM
[21] = second compound 31.6 µM, first compound 0.316 µM
[22] = second compound 31.6 µM, first compound 1 µM
[23] = second compound 31.6 µM, first compound 3.16 µM
[24] = second compound 31.6 µM, first compound 10 µM
[25] = second compound 100 µM, first compound 0.0316 µM
[26] = second compound 100 µM, first compound 0.1 µM
[27] = second compound 100 µM, first compound 0.316 µM
[28] = second compound 100 µM, first compound 1 µM
[29] = second compound 100 µM, first compound 3.16 µM
[30] = second compound 100 µM, first compound 10 µM
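Further: spheroids exposed to agents for 7 days.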

CC(C)n1c(=O)n(C)c2cnc3cc(F)c(-c4ccc(OCCCN5CCCCC5)nc4)cc3c21 + Cn1nnc2c(C(N)=O)ncn2c1=O
0.124 µM: IC50 (second compound 1 µM)
0.225 µM: IC50 (second compound 3.16 µM)
0.141 µM: IC50 (second compound 31.6 µM)
active: viability, T/C [6] 5.19% | viability, T/C [24] 6.37% | viability, T/C [29] 8.75% | viability, T/C [30] 5.3%
< 0.0316 µM: IC50 (second compound 100 µM)
0.266 µM: IC50 (second compound 10 µM)
inactive: viability, T/C [1] 57.7% | viability, T/C [2] 55.8% | viability, T/C [3] 36.1% | viability, T/C [4] 20.8% | viability, T/C [5] 13.7% | viability, T/C [7] 77.4% | viability, T/C [8] 67% | viability, T/C [9] 43% | viability, T/C [10] 20.6% | viability, T/C [11] 19.5% | viability, T/C [12] 6.63% | viability, T/C [13] 74.2% | viability, T/C [14] 72% | viability, T/C [15] 45.1% | viability, T/C [16] 21.4% | viability, T/C [17] 18.9% | viability, T/C [18] 5.99% | viability, T/C [19] 67.8% | viability, T/C [20] 58.5% | viability, T/C [21] 32.8% | viability, T/C [22] 19.8% | viability, T/C [23] 14.5% | viability, T/C [25] 45.8% | viability, T/C [26] 23.7% | viability, T/C [27] 17.5% | viability, T/C [28] 12.1%

CC1COCCN1c1cc(-c2ccnn2C)c2ccnc(-c3ccn[nH]3)c2n1 (stereo not given) + Cn1nnc2c(C(N)=O)ncn2c1=O
active: viability, T/C [3] 9.37% | viability, T/C [4] 7.42% | viability, T/C [5] 8.52% | viability, T/C [6] 7.26% | viability, T/C [9] 8.7% | viability, T/C [10] 8.72% | viability, T/C [11] 9.76% | viability, T/C [12] 9.55% | viability, T/C [15] 6.43% | viability, T/C [16] 8.73% | viability, T/C [17] 8.17% | viability, T/C [18] 7.97% | viability, T/C [21] 8% | viability, T/C [22] 8.25% | viability, T/C [23] 8.57% | viability, T/C [24] 9.27% | viability, T/C [26] 8.9% | viability, T/C [27] 6.62% | viability, T/C [28] 5.43% | viability, T/C [29] 8.9% | viability, T/C [30] 6.85%
inactive: viability, T/C [1] 34% | viability, T/C [2] 9.93% | viability, T/C [7] 46% | viability, T/C [8] 13.1% | viability, T/C [13] 33.1% | viability, T/C [14] 12.4% | viability, T/C [19] 41.4% | viability, T/C [20] 10.8% | viability, T/C [25] 16%
< 0.0316 µM: IC50 (second compound 1 µM) | IC50 (second compound 3.16 µM) | IC50 (second compound 10 µM) | IC50 (second compound 31.6 µM) | IC50 (second compound 100 µM)

COc1cc(C)[nH]c(=O)c1CN1CCc2c(Cl)cc(C(OC)C3COC3)c(Cl)c2C1=O (stereo not given) + Cn1nnc2c(C(N)=O)ncn2c1=O
inactive: viability, T/C [1] 87% | viability, T/C [2] 96.6% | viability, T/C [3] 95.9% | viability, T/C [4] 92.1% | viability, T/C [5] 89.8% | viability, T/C [6] 84.7% | viability, T/C [7] 114% | viability, T/C [8] 103% | viability, T/C [9] 110% | viability, T/C [10] 105% | viability, T/C [11] 101% | viability, T/C [12] 92.4% | viability, T/C [13] 104% | viability, T/C [14] 99.9% | viability, T/C [15] 114% | viability, T/C [16] 114% | viability, T/C [17] 95.8% | viability, T/C [18] 97.6% | viability, T/C [19] 113% | viability, T/C [20] 111% | viability, T/C [21] 100% | viability, T/C [22] 107% | viability, T/C [23] 89% | viability, T/C [24] 93.5% | viability, T/C [25] 94.4% | viability, T/C [26] 90.4% | viability, T/C [27] 90.3% | viability, T/C [28] 89.7% | viability, T/C [29] 88.3% | viability, T/C [30] 71.8%
> 10 µM: IC50 (second compound 1 µM) | IC50 (second compound 3.16 µM) | IC50 (second compound 10 µM) | IC50 (second compound 31.6 µM) | IC50 (second compound 100 µM)

COc1ccc([C@@H](O)c2cc(-c3ncnc4cc(N5CCOCC5)ccc34)c(F)cc2Cl)nn1 + Cn1nnc2c(C(N)=O)ncn2c1=O
2.3 µM: IC50 (second compound 1 µM)
2.5 µM: IC50 (second compound 10 µM)
2.1 µM: IC50 (second compound 100 µM)
2.57 µM: IC50 (second compound 3.16 µM)
2.67 µM: IC50 (second compound 31.6 µM)
inactive: viability, T/C [1] 91% | viability, T/C [2] 95.6% | viability, T/C [3] 87.5% | viability, T/C [4] 70.2% | viability, T/C [5] 42.5% | viability, T/C [6] 19.1% | viability, T/C [7] 101% | viability, T/C [8] 111% | viability, T/C [9] 104% | viability, T/C [10] 76.2% | viability, T/C [11] 45.7% | viability, T/C [12] 20.3% | viability, T/C [13] 111% | viability, T/C [14] 117% | viability, T/C [15] 113% | viability, T/C [16] 74.8% | viability, T/C [17] 46.6% | viability, T/C [18] 22.2% | viability, T/C [19] 110% | viability, T/C [20] 109% | viability, T/C [21] 94% | viability, T/C [22] 78.9% | viability, T/C [23] 44% | viability, T/C [24] 20.8% | viability, T/C [25] 101% | viability, T/C [26] 84.7% | viability, T/C [27] 82.2% | viability, T/C [28] 65.1% | viability, T/C [29] 40.3% | viability, T/C [30] 20.5%

Cc1cc(C)c(CNC(=O)c2cc(-c3ccc(CN4CCOCC4)cc3)cc3c2cnn3C2CCCC2)c(=O)[nH]1 + Cn1nnc2c(C(N)=O)ncn2c1=O
inactive: viability, T/C [1] 90.2% | viability, T/C [2] 100% | viability, T/C [3] 90.8% | viability, T/C [4] 80.7% | viability, T/C [5] 48.4% | viability, T/C [6] 11.2% | viability, T/C [7] 110% | viability, T/C [8] 107% | viability, T/C [9] 105% | viability, T/C [10] 91.7% | viability, T/C [11] 50.5% | viability, T/C [12] 14.6% | viability, T/C [13] 102% | viability, T/C [14] 106% | viability, T/C [15] 114% | viability, T/C [16] 85.4% | viability, T/C [17] 69.6% | viability, T/C [18] 13.1% | viability, T/C [19] 104% | viability, T/C [20] 116% | viability, T/C [21] 100% | viability, T/C [22] 85.4% | viability, T/C [23] 49.3% | viability, T/C [24] 10.9% | viability, T/C [25] 94.6% | viability, T/C [26] 91.4% | viability, T/C [27] 87.4% | viability, T/C [28] 59.6% | viability, T/C [29] 28.6%
2.97 µM: IC50 (second compound 1 µM)
3.07 µM: IC50 (second compound 31.6 µM)
3.22 µM: IC50 (second compound 3.16 µM)
4.59 µM: IC50 (second compound 10 µM)
1.47 µM: IC50 (second compound 100 µM)
active: viability, T/C [30] 6.56%

[2H]c1nc(C)nc([2H])c1-c1cc(NC[C@@H](C)c2cccc3c(C(=O)NC)ccnc23)ncn1 + Cn1nnc2c(C(N)=O)ncn2c1=O
inactive: viability, T/C [1] 88.2% | viability, T/C [2] 96.8% | viability, T/C [3] 95.9% | viability, T/C [4] 71.2% | viability, T/C [5] 93.4% | viability, T/C [6] 76.9% | viability, T/C [7] 108% | viability, T/C [8] 91.8% | viability, T/C [9] 102% | viability, T/C [10] 105% | viability, T/C [11] 109% | viability, T/C [12] 94.4% | viability, T/C [13] 99.2% | viability, T/C [14] 114% | viability, T/C [15] 110% | viability, T/C [16] 107% | viability, T/C [17] 112% | viability, T/C [18] 84.2% | viability, T/C [19] 105% | viability, T/C [20] 113% | viability, T/C [21] 104% | viability, T/C [22] 110% | viability, T/C [23] 101% | viability, T/C [24] 85.5% | viability, T/C [25] 82.7% | viability, T/C [26] 91.3% | viability, T/C [27] 87.4% | viability, T/C [28] 86.5% | viability, T/C [29] 88.2% | viability, T/C [30] 83.5%
> 10 µM: IC50 (second compound 1 µM) | IC50 (second compound 3.16 µM) | IC50 (second compound 10 µM) | IC50 (second compound 31.6 µM) | IC50 (second compound 100 µM)
